Measured values reported in patent US20250099548A1, “PHARMACEUTICAL COMPOSITION FOR PREVENTING OR TREATING DEGENERATIVE BRAIN DISEASES, CONTAINING GLUCAGON-LIKE PEPTIDE-1 AND INTERLEUKIN-1 RECEPTOR ANTAGONIST” (GI INNOVATION, INC., priority 2022, published 2025).

What was measured:
Assay type in all cases: in vivo, mouse
[1] = tested on: Tg-APP/PS1 mice; test: DCX immunochemical staining of hippocampal DG region; settings: Example 1; GI210B1 1.2 mg/kg intraperitoneal, 4 times for 2 weeks
Excerpt: DCX (doublecortin) is continuously expressed during the 2-3 weeks during which immature neurons mature, and is expressed in […]. For this reason, DCX is used as a marker of neurogenesis, indicating the degree of neuronal differentiation and after the metaphase of newly generated neurons.
In order to confirm the effect of GI210B1 on the decreased neurogenesis in the DG (dentate gyrus) region of the hippocampus of Tg mice, the Tg-APP/PS1 mice administered with GI210B1 (Tg+GI210B1), the wild type mice (WT) as a normal group, and the Tg-APP/PS1 mice (Tg or Tg+Veh) as a control group were sacrificed, and then the brain tissue was extracted, and the DG region of the hippocampus was stained with DCX.
In the same manner as in Example 1.4.2 above, the mice from each group were sacrificed, and then the brain tissue was extracted, and the DG region of the hippocampus was stained with DCX.

[2] = tested on: Tg-APP/PS1 mice; test: Water maze test; settings: Example 1
Procedure: (§1) The test substance was prepared by diluting GI210B1 obtained in Preparation Example 1 in saline, and it was intraperitoneally administered to 6.5-month-old Tg-APP/PS1 mice at a concentration of 1.2 mg/kg a total of 4 times for 2 weeks (FIG. 10).
(§2) In the Tg-APP/PS1 mice intraperitoneally administered with GI210B1 at 6.5 months of age in Example 1.1 above, behavioral characteristics of cognitive function were evaluated at 7.5 to 8.0 months of age. In order to evaluate the behavioral characteristics of cognitive function, a novel object recognition test (NOR test), a passive avoidance test, and a water maze test were performed. At that time, the three experiments for behavioral evaluation were performed according to a method known in the art.
The water maze test is a cognitive behavior evaluation experiment conducted to measure spatial perception learning ability and memory dependent on the hippocampus area of the brain. […]
In addition, a hidden platform test was conducted on the 6th day. The hidden platform of the water maze was removed, and then the mouse was placed in the water maze and the location the mouse stayed for 60 seconds was recorded. At that time, the time and location that the mouse stayed in the four quadrants of the water maze for 60 seconds in the absence of a hidden platform were recorded. […]

[3] = tested on: Tg-APP/PS1 mice; test: Novel object recognition test; settings: Example 1, 1.2 mg/kg intraperitoneal, 4 times for 2 weeks from 6.5 months of age
Procedure: as §1, §2
All behavior evaluations were recorded with a computerized video-tracking system (SMART; Panlab S. I., Barcelona, Spain) and a webcam recording system (HD Webcam C210, Logitech, Newark, CA, USA). At that time, the background sound in the test room was set to 65 dB of white noise, and all behavioral tests were performed during the photoperiod (9 a.m. to 3 p.m.).
Specifically, the mice prepared in Example 1.1 above were repeatedly exposed to two objects of the same shape twice at intervals of 10 minutes in an open field (familiarization). […] In addition, two hours after the habituation of the mice was completed, the mice were exposed to a novel object and an old object, and then the time taken for the mouse to recognize each object was measured [2-hour-NOR (novel object recognition) experiment]. Thereafter, the mice returned to their home cage, and then the location of one of the just-exposed objects was moved, and then object distinguishment and recognition time were measured [2-hour-NLR (novel position recognition) experiment]. Thereafter, 24 hours after the habituation of the mice was completed, the mice were exposed to another object and an old object, and then the time taken for the mouse to approach each object was measured (24-hour-NOR experiment). […]

[4] = tested on: Tg-APP/PS1 mice; test: Ki-67 staining of hippocampal DG region; settings: Example 1; GI210B1 1.2 mg/kg intraperitoneal, 4 times for 2 weeks
Excerpt: Ki-67 is a protein expressed in the nucleus during cell division.
In order to confirm the effect of GI210B1 on the decreased neurogenesis in the DG region of the hippocampus of Tg mice, the Tg-APP/PS1 mice administered with GI210B1 (Tg+GI210B1), the wild type mice (WT) as a normal group, and the Tg-APP/PS1 mice (Tg) as a control group were sacrificed, and then the brain was extracted, and the DG region of the hippocampus was fluorescently stained with Ki-67.

“GI210B1: fusion protein dimer comprising GLP-1 (SEQ ID NO: 2), IgG4 Fc domain and IL-1Ra; SEQ ID NO: 10” was tested, and the “number of DCX positive cells in the DG region of the hippocampus” value [1] was “increased compared to the control group (Tg), and was recovered to a level similar to that of the normal group (WT)”, the “time in target quadrant, hidden platform test” value ([2]; 6th day, platform removed, 60 seconds) was “recognized for a longer time compared to the control group (Tg+Veh)” and the “time taken for the mouse to learn and find the location of the hidden platform (spatial perception training)” value ([2]; training twice a day for 5 days, 1.2 mg/kg intraperitoneal, 4 times for 2 weeks) was “somewhat slower than that of the normal group, but faster than that of the control group (Tg+Veh)”. The “recognition of a novel object, 24-hour-NOR experiment” value [3] was “recognized a novel object for a longer time at a similar level to the normal group (WT)”, the “time taken for the mouse to recognize an object whose location was changed, 2-hour-NLR experiment” value [3] was “increased similar to the normal group” and the “time taken for the mouse to recognize a novel object, 2-hour-NOR experiment” value ([3]; tested at 7.5 to 8.0 months) was “increased similar to the normal group (WT)”. The “number of Ki-67 positive cells in the DG region of the hippocampus” value [4] was “increased compared to the Tg-APP/PS1 mice (Tg), which was a level similar to that of the normal group (WT)”.
